# Measurements taken from PubChem BioAssay (NCI).
#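 Compound exposure: 48 hours, 5 concentrations, 96-well plates. TGI is the concentration that stops growth completely.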
# What was measured:
# Assay in all cases: NCI tumour cell line growth inhibition, 48 h
# [1] = system: BT-549 breast
# [2] = system: DU-145 prostate
# [3] = system: HL-60(TB) leukemia
# [4] = system: HOP-62 NSCLC
# [5] = system: IGROV1 ovarian
# [6] = system: MDA-MB-435
# [7] = system: MDA-N
# [8] = system: NCI-H23 lung
# [9] = system: NCI-H522 lung
# [10] = system: PC-3 prostate
# [11] = system: A498 renal
compound,measurement,setting,value
COc1ccc(N2CCN(c3ccc4c(c3)NCC(=O)N4)CC2)cc1,TGI,[1],> 100 µM
same,TGI,[2],> 100 µM
same,TGI,[3],47.5 µM
same,TGI,[4],> 100 µM
same,TGI,[5],> 100 µM
same,TGI,[6],> 100 µM
same,TGI,[7],> 100 µM
same,TGI,[8],> 100 µM
same,TGI,[9],30.8 µM
same,TGI,[10],> 100 µM
COCC(=O)[C@]1(O)Cc2c(O)c3c(c(O)c2[C@@H](OC2CC(N)C(O)C(C)O2)C1)C(=O)c1c(OC)cccc1C3=O (some centres not stated),TGI,[11],0.624 µM
same,TGI,[1],1.99 µM
same,TGI,[2],0.974 µM
same,TGI,[3],0.184 µM
same,TGI,[4],0.847 µM
same,TGI,[5],6.83 µM
same,TGI,[7],0.249 µM
same,TGI,[8],0.256 µM
same,TGI,[9],0.124 µM
same,TGI,[10],1.48 µM
CCOC(OCC)C(CCc1ccccc1)c1c(N)nc(N)[nH]c1=O (configuration not stated),TGI,[11],> 100 µM
same,TGI,[1],> 100 µM
same,TGI,[2],> 100 µM
same,TGI,[3],> 100 µM
same,TGI,[4],> 100 µM
same,TGI,[5],> 100 µM
same,TGI,[6],> 100 µM
same,TGI,[8],> 100 µM
same,TGI,[10],> 100 µM
Brc1cccc(C2(CCCC3(c4cccc(Br)n4)OCCO3)OCCO2)n1,TGI,[11],> 100 µM
same,TGI,[1],> 100 µM
same,TGI,[4],> 100 µM
same,TGI,[5],> 100 µM
same,TGI,[6],> 100 µM
same,TGI,[7],> 100 µM
same,TGI,[8],> 100 µM
same,TGI,[9],> 100 µM
same,TGI,[10],> 100 µM
COC(=O)C1(NC(=O)C(N)CC(=O)O)C(C)C1C (configuration not stated),TGI,[11],> 100 µM
same,TGI,[2],> 100 µM
same,TGI,[3],> 100 µM
same,TGI,[4],> 100 µM
same,TGI,[5],> 100 µM
same,TGI,[6],> 100 µM
same,TGI,[7],> 100 µM
same,TGI,[8],> 100 µM
same,TGI,[9],> 100 µM
same,TGI,[10],> 100 µM
CC(C)(C)OC(=O)NC(CCCCNC(=O)OCc1ccccc1)C(=O)NC(CCCCNC(=O)OCc1ccccc1)C(=O)ON1C(=O)CCC1=O (configuration not stated),TGI,[1],> 100 µM
same,TGI,[3],> 100 µM
same,TGI,[4],> 100 µM
same,TGI,[5],> 100 µM
same,TGI,[7],> 100 µM
same,TGI,[8],> 100 µM
same,TGI,[10],> 100 µM
Oc1[nH]c2ccccc2c1N=NC(=S)N1CCCCCC1,TGI,[11],2.3 µM
same,TGI,[2],10.5 µM
same,TGI,[4],4.09 µM
same,TGI,[5],2.35 µM
same,TGI,[6],3.71 µM
same,TGI,[7],22.7 µM
same,TGI,[8],8.51 µM
same,TGI,[9],12.6 µM
same,TGI,[10],10.6 µM
O=C1c2ccccc2C(=O)N1C(=S)c1ccccc1,TGI,[1],> 100 µM
same,TGI,[2],> 100 µM
same,TGI,[3],> 100 µM
same,TGI,[4],> 100 µM
same,TGI,[5],> 100 µM
same,TGI,[6],> 100 µM
same,TGI,[7],> 100 µM
same,TGI,[8],> 100 µM
same,TGI,[9],> 100 µM
same,TGI,[10],> 100 µM
ClCc1c(-c2ccccc2)nn(-c2ccccc2)c1CCl,TGI,[2],29 µM
same,TGI,[3],6.13 µM
same,TGI,[5],42.9 µM
same,TGI,[6],6.42 µM
same,TGI,[7],24.2 µM
same,TGI,[8],34.7 µM
same,TGI,[9],0.416 µM
same,TGI,[10],21.4 µM
[N-]=[N+]=C1CNC(=O)NC1=O,TGI,[2],> 100 µM
same,TGI,[3],> 100 µM
same,TGI,[4],> 100 µM
same,TGI,[5],> 100 µM
same,TGI,[6],> 100 µM
same,TGI,[7],> 100 µM
same,TGI,[8],> 100 µM
same,TGI,[9],> 100 µM
same,TGI,[10],> 100 µM
Cc1nnc(N)nc1/C=C\c1cccs1,TGI,[11],49.7 µM
same,TGI,[1],> 100 µM
same,TGI,[2],> 100 µM
same,TGI,[3],31.7 µM
same,TGI,[4],38.5 µM
same,TGI,[5],28.7 µM
same,TGI,[6],74.9 µM
same,TGI,[8],55.1 µM
same,TGI,[9],17.6 µM
same,TGI,[10],56.4 µM
CC(=O)OCC1OC(OCC2OC(N3C(=S)N[C@H]([C@@H](O)[C@H](O)[C@H](O)CO)[C@H]3O)C(OC(C)=O)C(OC(C)=O)C2OC(C)=O)C(OC(C)=O)C(OC(C)=O)C1OC(C)=O (some centres not stated),TGI,[11],> 100 µM
same,TGI,[2],> 100 µM
same,TGI,[4],> 100 µM
same,TGI,[6],> 100 µM
same,TGI,[7],> 100 µM
same,TGI,[8],> 100 µM
same,TGI,[9],> 100 µM
same,TGI,[10],> 100 µM
Cc1ccc([N+](=O)[O-])cc1S(=O)(=O)Nc1ccc(C2=NN(c3ccc([N+](=O)[O-])cc3[N+](=O)[O-])C(c3ccccc3O)C2)cc1 (configuration not stated),TGI,[1],> 100 µM
same,TGI,[2],> 100 µM
same,TGI,[3],> 100 µM
same,TGI,[4],> 100 µM
same,TGI,[5],> 100 µM
same,TGI,[6],> 100 µM
same,TGI,[7],> 100 µM
same,TGI,[8],59.7 µM
same,TGI,[9],83.1 µM
same,TGI,[10],> 100 µM
O=C1C[C@H](c2ccccc2)C2(C(=O)c3ccccc3C2=O)[C@@H](c2ccccc2)C1,TGI,[11],> 100 µM
same,TGI,[1],71.9 µM
same,TGI,[2],> 100 µM
same,TGI,[3],> 100 µM
same,TGI,[4],> 100 µM
same,TGI,[5],> 100 µM
same,TGI,[7],81 µM
same,TGI,[8],> 100 µM
same,TGI,[9],> 100 µM
same,TGI,[10],> 100 µM
CC(/C=N/NC1=NCCCCN1)=N\NC1=NCCCCN1,TGI,[1],> 100 µM
same,TGI,[4],> 100 µM
same,TGI,[5],> 100 µM
same,TGI,[6],> 100 µM
same,TGI,[7],> 100 µM
same,TGI,[8],> 100 µM
same,TGI,[9],> 100 µM
same,TGI,[10],> 100 µM
Cc1ccccc1NC(=S)N=Nc1c(O)[nH]c2ccccc12,TGI,[11],> 100 µM
same,TGI,[2],> 100 µM
same,TGI,[3],> 100 µM
same,TGI,[4],> 100 µM
same,TGI,[5],> 100 µM
same,TGI,[6],> 100 µM
same,TGI,[7],> 100 µM
same,TGI,[8],> 100 µM
same,TGI,[9],> 100 µM
same,TGI,[10],> 100 µM
